≈ marks a conversion by molar mass, not a printed value.
Columns and labels:
[1] = Stability of compound in hamster liver microsomes assessed as percentage of parent compound remaining at 0.5 uM measured after 30 mins; type: ADME, Cricetulus griseus, Microsome; settings: chinese hamster, read-out: Stability
[2] = Stability of compound in human liver microsomes assessed as percentage of parent compound remaining at 0.5 uM measured after 30 mins; type: ADME, Microsome; settings: read-out: Stability
in vivo [3] = settings: mouse, po, 25 mg/kg
MRC5 = experiment: Cytotoxicity against human MRC5 cells assessed as cell viability after 72 hrs by fluorimetric analysis; type: ADME, cell-based; settings: MRC5, 72 h
[4] = AUClast in mouse at 1 mg/kg, iv measured upto 24 hrs LC-MS/MS analysis; settings: in vivo
[5] = Stability of compound in CD-1 mouse liver microsomes assessed as percentage of parent compound remaining at 0.5 uM measured after 30 mins; type: ADME, Microsome; settings: read-out: Stability
in vivo [6] = settings: mouse, po, 25 mg/kg; remark: listed apart in the source
Leishmania infantum [7] = experiment: Antileishmanial activity against Leishmania infantum MHOM/MA(BE)/67 amastigotes infected in macrophages assessed as reduction in parasite burden by giemsa staining based microscopic analysis; type: functional, organism-based
Trypanosoma cruzi = experiment: Antitrypanosomal activity against Trypanosoma cruzi Tulahuen CL2 infected in human MRC-5 cells assessed as parasite growth; type: functional, organism-based; settings: Tulahuen CL2, MRC5
[8] = Kinetic solubility of compound in water at pH7 by HPLC analysis; settings: pH 7
Leishmania donovani [9] = experiment: Antileishmanial activity against Leishmania donovani amastigotes infected in mouse J774A.1 cells incubated for 72 hrs by luciferase assay; type: functional, organism-based; settings: J774.A1, 72 h
in vivo [10] = settings: mouse, po, 25 mg/kg; remark: listed apart in the source
hERG (KCNH2) = hERG (KCNH2) (Homo sapiens, UniProt Q12809); experiment: Inhibition of human ERG expressed in HEK293 cells at 10 uM relative to control; type: cell-based; settings: HEK293 cells expressing human ERG
hERG (KCNH2), sequence (Q12809 whole entry): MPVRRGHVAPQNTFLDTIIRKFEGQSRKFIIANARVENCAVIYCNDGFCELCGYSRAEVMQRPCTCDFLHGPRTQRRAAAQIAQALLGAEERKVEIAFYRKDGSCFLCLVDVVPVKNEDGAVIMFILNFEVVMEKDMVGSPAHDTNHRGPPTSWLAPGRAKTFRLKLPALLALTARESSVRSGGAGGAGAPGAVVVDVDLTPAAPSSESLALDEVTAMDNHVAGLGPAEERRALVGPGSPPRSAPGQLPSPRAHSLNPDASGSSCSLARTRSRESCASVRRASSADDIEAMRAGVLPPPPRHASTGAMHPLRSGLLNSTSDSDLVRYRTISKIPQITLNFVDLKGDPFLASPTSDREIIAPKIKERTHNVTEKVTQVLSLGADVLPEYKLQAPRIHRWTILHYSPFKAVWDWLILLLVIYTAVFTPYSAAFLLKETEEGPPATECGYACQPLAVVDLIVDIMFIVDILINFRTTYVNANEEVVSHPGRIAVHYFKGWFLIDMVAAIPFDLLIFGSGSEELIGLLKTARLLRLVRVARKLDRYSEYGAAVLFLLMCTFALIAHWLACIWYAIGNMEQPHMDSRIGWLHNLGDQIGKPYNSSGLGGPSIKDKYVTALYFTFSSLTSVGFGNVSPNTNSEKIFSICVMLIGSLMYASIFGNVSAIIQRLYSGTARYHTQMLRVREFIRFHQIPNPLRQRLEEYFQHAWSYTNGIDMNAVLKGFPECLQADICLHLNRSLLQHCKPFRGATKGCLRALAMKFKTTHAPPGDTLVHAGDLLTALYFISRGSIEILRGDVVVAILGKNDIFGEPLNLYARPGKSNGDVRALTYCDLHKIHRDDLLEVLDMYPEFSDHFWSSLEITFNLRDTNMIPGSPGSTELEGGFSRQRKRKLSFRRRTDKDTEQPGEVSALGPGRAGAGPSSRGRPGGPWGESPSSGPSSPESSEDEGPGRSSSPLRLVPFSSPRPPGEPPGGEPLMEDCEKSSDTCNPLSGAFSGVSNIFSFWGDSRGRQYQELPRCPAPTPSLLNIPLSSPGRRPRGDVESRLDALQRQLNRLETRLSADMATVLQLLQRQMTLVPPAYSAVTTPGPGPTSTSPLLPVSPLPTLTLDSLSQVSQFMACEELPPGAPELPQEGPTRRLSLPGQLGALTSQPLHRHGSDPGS

[11] = Clearance in mouse at 1 mg/kg, iv measured upto 24 hrs LC-MS/MS analysis; settings: in vivo
[12] = Half life in mouse at 1 mg/kg, iv measured upto 24 hrs LC-MS/MS analysis; settings: in vivo
[13] = Volume of distribution at steady state in mouse at 1 mg/kg, iv measured upto 24 hrs LC-MS/MS analysis; settings: in vivo
[14] = Initial plasma concentration in mouse at 1 mg/kg, iv measured upto 24 hrs LC-MS/MS analysis
[15] = AUClast in mouse at 25 mg/kg, po measured upto 24 hrs LC-MS/MS analysis; settings: in vivo
[16] = test system: Mycobacterium tuberculosis; experiment: Antitubercular activity against Mycobacterium tuberculosis H37Rv assessed as reduction in microbial growth under anaerobic condition by luminescence analysis; type: functional
[17] = test system: Mycobacterium tuberculosis; experiment: Antitubercular activity against Mycobacterium tuberculosis H37Rv assessed as reduction in microbial growth under aerobic condition by luminescence analysis; type: functional
Leishmania donovani [18] = experiment: Antileishmanial activity against Leishmania donovani amastigotes infected in BALB/C mouse assessed as reduction in parasite burden in liver tissue at 50 mg/kg, po administered once per day for 5 days relative to control; type: functional; settings: 120 h, time 5 day
[19] = mouse, in vivo, po, 25 mg/kg, 24 h
[20] = Kinetic solubility of compound in 0.1 M Hcl at pH1 by HPLC analysis; type: physicochemical; settings: pH 1, read-out: Kinetic_solubility
Leishmania infantum [21] = experiment: Antileishmanial activity against Leishmania infantum amastigotes infected in golden hamster assessed as reduction in parasite load in bone marrow tissue at 50 mg/kg, po administered once daily for 5 days relative to control; type: functional; settings: 120 h, time 5 day
Leishmania infantum [22] = experiment: Antileishmanial activity against Leishmania infantum amastigotes infected in golden hamster assessed as reduction in parasite load in liver tissue at 25 mg/kg, po administered once daily for 5 days relative to control; settings: in Mesocricetus auratus, 120 h, read-out: INH
Leishmania infantum [23] = experiment: animal or person; settings: in Mesocricetus auratus, po, 120 h, read-out: INH
Description: Antileishmanial activity against Leishmania infantum amastigotes infected in golden hamster assessed as reduction in parasite load in bone marrow tissue at 12.5 mg/kg, po administered once daily for 5 days relative to control

Leishmania donovani [24] = experiment: Antileishmanial activity against Leishmania donovani amastigotes infected in BALB/C mouse assessed as reduction in parasite burden in liver tissue at 3.13 mg/kg, po administered once per day for 5 days relative to control; type: functional; settings: 120 h, time 5 day
Leishmania infantum [25] = experiment: animal or person; settings: in Mesocricetus auratus, po, 120 h, read-out: INH; remark: listed apart in the source
Description: Antileishmanial activity against Leishmania infantum amastigotes infected in golden hamster assessed as reduction in parasite load in spleen tissue at 12.5 mg/kg, po administered once daily for 5 days relative to control

Leishmania infantum [26] = experiment: Antileishmanial activity against Leishmania infantum amastigotes infected in golden hamster assessed as reduction in parasite load in bone marrow tissue at 25 mg/kg, po administered once daily for 5 days relative to control; settings: in Mesocricetus auratus, 120 h, read-out: INH
Leishmania infantum [27] = experiment: Antileishmanial activity against Leishmania infantum amastigotes infected in golden hamster assessed as reduction in parasite load in spleen tissue at 50 mg/kg, po administered once daily for 5 days relative to control; type: functional; settings: 120 h, time 5 day
Leishmania infantum [28] = experiment: animal or person; settings: in Mesocricetus auratus, po, 120 h, read-out: INH; remark: listed apart in the source
Description: Antileishmanial activity against Leishmania infantum amastigotes infected in golden hamster assessed as reduction in parasite load in liver tissue at 12.5 mg/kg, po administered once daily for 5 days relative to control

Leishmania donovani [29] = experiment: Antileishmanial activity against Leishmania donovani amastigotes infected in BALB/C mouse assessed as reduction in parasite burden in liver tissue at 25 mg/kg, po administered once per day for 5 days relative to control; settings: 120 h, read-out: INH
Leishmania infantum [30] = experiment: Antileishmanial activity against Leishmania infantum amastigotes infected in golden hamster assessed as reduction in parasite load in liver tissue at 50 mg/kg, po administered once daily for 5 days relative to control; type: functional; settings: 120 h, time 5 day
[31] = AUClast in hamster at 41 to 51 mg/kg, po measured upto 24 hrs LC-MS/MS analysis; settings: chinese hamster, in vivo
[32] = Half life in mouse at 25 mg/kg, po measured upto 24 hrs LC-MS/MS analysis; settings: in vivo
in vivo [33] = settings: chinese hamster, po
in vivo [34] = settings: chinese hamster, po; remark: listed apart in the source
[35] = Half life in hamster at 41 to 51 mg/kg, po measured upto 24 hrs LC-MS/MS analysis; settings: chinese hamster, in vivo

O=[N+]([O-])c1cn2c(n1)OC(COc1ncc(Cl)cn1)CC2 (stereo unspecified)
remaining at 0.5 h, 0.5 µM [1]: 90%
remaining at 0.5 h, 0.5 µM [2]: 99%
Tmax at 24 h (in vivo [3]): 120 min
IC50 (MRC5): > 64000 nM
AUC(0-t) at 24 h [4]: 2070 ng·h/mL
remaining at 0.5 h, 0.5 µM [5]: 100%
bioavailability at 24 h (in vivo [6]): 15%
IC50 (Leishmania infantum [7]): > 64000 nM
IC50 (Trypanosoma cruzi): 39000 nM
solubility kinetic [8]: 6.6 µg/mL (≈ 21.2 µM)
IC50 (Leishmania donovani [9]): 120 nM
Cmax at 24 h (in vivo [10]): 760 ng/mL
inhibition at 10 µM (hERG (KCNH2)): 12%
clearance at 24 h [11]: 7.3 mL/min/kg
AUC at 24 h [12]: 580 ng·h/mL
Vd at 24 h [13]: 0.37 L/kg
C0 at 24 h [14]: 1900 ng/mL
AUC(0-t) at 24 h [15]: 3830 ng·h/mL

CC1(COc2ccc(C(F)(F)F)cn2)CCn2cc([N+](=O)[O-])nc2O1 (stereo unspecified)
Tmax at 24 h (in vivo [3]): 30 min
MIC [16]: 8.9 µM
MIC [17]: 0.6 µM
inhibition in vivo at 50 mg/kg (Leishmania donovani [18]): 96%
IC50 (MRC5): > 64000 nM
AUClast ([4]; 24 h): 544 ng·h/mL
IC50 (Leishmania infantum [7]): 270 nM
IC50 (Trypanosoma cruzi): 290 nM
solubility kinetic [8]: 19 µg/mL (≈ 53 µM)
IC50 (Leishmania donovani [9]): 210 nM
F [19]: 100%
Cmax at 24 h (in vivo [10]): 15000 ng/mL
inhibition at 10 µM (hERG (KCNH2)): 18%
solubility kinetic [20]: 12 µg/mL (≈ 33.5 µM)
clearance at 24 h [11]: 31 mL/min/kg
half-life at 24 h [12]: 51 min
Vd at 24 h [13]: 1.3 L/kg
C0 at 24 h [14]: 810 ng/mL
AUClast ([15]; 24 h): 57100 ng·h/mL

C[C@]1(COc2ccc(OC(F)(F)F)cc2)CCn2cc([N+](=O)[O-])nc2O1
inhibition in vivo at 50 mg/kg (Leishmania infantum [21]): 96.7%
inhibition in vivo at 25 mg/kg (Leishmania infantum [22]): 93.6%
inhibition in vivo at 12.5 mg/kg (Leishmania infantum [23]): 42.5%
inhibition in vivo at 3.13 mg/kg (Leishmania donovani [24]): 51%
inhibition in vivo at 12.5 mg/kg (Leishmania infantum [25]): 59.5%
inhibition in vivo at 25 mg/kg (Leishmania infantum [26]): 81.5%
inhibition in vivo at 50 mg/kg (Leishmania infantum [27]): 98%
IC50 (Leishmania donovani [9]): 60 nM
inhibition in vivo at 12.5 mg/kg (Leishmania infantum [28]): 67.8%
inhibition in vivo at 25 mg/kg (Leishmania donovani [29]): > 99%
inhibition in vivo at 50 mg/kg (Leishmania infantum [30]): 99.6%

C[C@]1(COc2ccc(C(F)(F)F)cn2)CCn2cc([N+](=O)[O-])nc2O1
inhibition in vivo at 50 mg/kg (Leishmania infantum [21]): 54%
Tmax at 24 h (in vivo [3]): 222 min
MIC [16]: 3.8 µM
MIC [17]: 0.16 µM
inhibition in vivo at 50 mg/kg (Leishmania donovani [18]): 84%
IC50 (MRC5): > 64000 nM
AUC(0-t) at 24 h [31]: 72 ng·h/mL
IC50 (Leishmania infantum [7]): 290 nM
inhibition in vivo at 50 mg/kg (Leishmania infantum [27]): 47.1%
IC50 (Trypanosoma cruzi): 340 nM
solubility kinetic [8]: 26 µg/mL (≈ 72.6 µM)
half-life at 24 h [32]: 90 min
Cmax at 24 h (in vivo [10]): 9500 ng/mL
Cmax at 24 h (in vivo [33]): 45 ng/mL
Tmax at 24 h (in vivo [34]): 45 min
half-life at 24 h [35]: 43.2 min
inhibition in vivo at 50 mg/kg (Leishmania infantum [30]): 51.8%
AUC(0-t) at 24 h [15]: 39600 ng·h/mL

— ChEMBL document CHEMBL5036301, “Heteroaryl ether analogues of an antileishmanial 7-substituted 2-nitroimidazooxazine lead afford attenuated hERG risk: In vitro and in vivo appraisal” (Eur J Med Chem, 2021)
